For this test, the target named is 6His-tagged human FADS isoform 2 (FADS2), WT (Homo sapiens, UniProt Q8NFF5). Description: UV/Vis spectra. It is filed as binding. Conditions: reaction product, non-covalent; bound flavin as purified.

Data on one compound can be found in article PMC4908180 (American Journal of Human Genetics, 2016).

Sequence of 6His-tagged human FADS isoform 2 (FADS2), WT (Q8NFF5 98-587): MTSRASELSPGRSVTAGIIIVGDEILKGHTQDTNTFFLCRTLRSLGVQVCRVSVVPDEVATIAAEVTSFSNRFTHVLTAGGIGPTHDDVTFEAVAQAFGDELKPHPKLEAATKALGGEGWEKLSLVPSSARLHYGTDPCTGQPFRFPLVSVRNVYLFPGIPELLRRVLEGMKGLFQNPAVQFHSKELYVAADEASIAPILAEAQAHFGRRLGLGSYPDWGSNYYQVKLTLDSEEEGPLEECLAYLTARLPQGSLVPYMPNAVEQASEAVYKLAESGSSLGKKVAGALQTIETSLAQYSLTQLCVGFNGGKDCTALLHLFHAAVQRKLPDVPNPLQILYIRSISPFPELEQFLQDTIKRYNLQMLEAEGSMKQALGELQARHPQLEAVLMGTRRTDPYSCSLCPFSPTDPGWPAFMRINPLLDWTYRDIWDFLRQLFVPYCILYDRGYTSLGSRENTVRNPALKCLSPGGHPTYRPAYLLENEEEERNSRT

As to `Cc1cc2nc3c(=O)[nH]c(=O)nc-3n(C[C@H](O)[C@H](O)[C@H](O)COP(=O)(O)OP(=O)(O)OC[C@H]3O[C@@H](n4cnc5c(N)ncnc54)[C@H](O)[C@@H]3O)c2cc1C` [FAD], the “UV/Vis spectra (FAD saturation of purified protein)” value is “Spectrophotometric analysis of the purified WT, p.Ser495del, and p.Arg530Cys FADS2 proteins”.
